# In paper PMC6749586, “Design, Synthesis, and Anticancer Effect Studies of Iridium(III) Polypyridyl Complexes against SGC-7901 Cells” (Molecules, 2019):
# How the values were obtained:
# A549 cells = experiment: MTT cytotoxicity assay, A549; format: cell-based, human; details: 48 h, read-out: IC50 toward A549
# Source text: The lung carcinoma cell line A549, the cervical cancer cell line HeLa, the esophageal cancer cell line Eca-109, and the human hepatocellular carcinoma cell line BEL-7402 were purchased from the cell bank of the Cell Institute of Sinica Academia Shanghai (Shanghai, China). The gastric adenocarcinoma cell line SGC-7901, the hepatocellular carcinoma cell line HepG2, and the mouse embryonic fibroblast cell line NIH 3T3 were obtained from the Experimental Animal Center of Sun Yat-Sen University (Guangzhou, China). The BEL-7402 and SGC-7901 cell lines were cultured in Roswell Park Memorial Institute Medium (RPMI-1640); and A549, Eca-109, HepG2, and NIH 3T3 cells were grown in Dulbecco’s Modified Eagle’s Medium (DMEM), including 10% fetal bovine serum (FBS), 100 units mL^−1 penicillin/streptomycin mixture, and 2.0 g/L of NaHCO3. Cell passage experiments were performed with trypsin every 2 days to maintain exponential growth. All cells were cultured until they reached logarithmic growth phase, unless specifically noted.
# Cell cytotoxicity following treatment with the iridium(III) complexes was detected by MTT assay. The cells were seeded into 96-well micro-assay culture plates (1 × 10^4 cells per well) and grown overnight in a 5% CO2 incubator at 37 °C. Then, the cell lines were treated with gradient concentrations of the complexes 1–3. After treatment for 48 h, MTT solution (5 mg mL^−1, […]) dissolved in phosphate buffer was added to each well and the cells were further cultured for 4 h. Upon completion of incubation, the solvent was removed and 100 µL/well of buffer containing dimethylformamide (50%) and sodium dodecyl sulfate (20%) was added to dissolve the produced formazan. The absorbance of each well was measured with a microplate reader at a wavelength of 490 nm. The IC50 values were determined from the plots of viability versus concentration used to treat the cells. Three independent experiments were performed to obtain the mean values.
# SGC-7901 cells = experiment: Annexin V-FITC/PI apoptosis analysis by flow cytometry; format: cell-based, human; details: 4.0 µM 1, 15.0 µM 2 or 3; for Early apoptotic cells (EA): 24 h (b62 says 48 h), control 2.84%
# Experimental: A total of 1 mL of SGC-7901 cells at 2 × 10^6 cells/mL was seeded in a six-well plate and incubated overnight in a CO2 incubator at 37 °C. Then, the cells were treated with 1, 2, or 3 for 24 h. After treatment, the cells were harvested, washed three times with ice-cold PBS, and then re-suspended in 195 μL of 1 × Annexin V-FITC binding buffer. Next, 10 μL of PI and 5 μL of Annexin-FITC were sequentially added to each sample, stained in the dark for 20 min, and analyzed by a FACS Calibur flow cytometer ([…] Dickinson & Co., Franklin Lakes, NJ, USA). Annexin-V positive cells were considered apoptotic.
SMILES,IC50 (A549 cells),Percentage including early and late apoptotic cells (SGC-7901 cells),Early apoptotic cells (EA) (SGC-7901 cells)
"F[P-](F)(F)(F)(F)F.O=[N+]([O-])c1cc2ccc[n+]3c2c2c1ccc[n+]2[Ir-5]312([c]3ccccc3-c3cccc[n+]31)[c]1ccccc1-c1cccc[n+]12 [Complex 1, [Ir(Hppy)2(NP)]PF6]",14.3 ± 2.4 µM,37.07%,29.9%
"F[P-](F)(F)(F)(F)F.Nc1c(N)c2cccnc2c2ncccc12.[Ir+3].[c-]1ccccc1-c1ccccn1.[c-]1ccccc1-c1ccccn1 [Complex 3, [Ir(Hppy)2(DAP)]PF6]",> 100 µM,41.8%,13.7%
"F[P-](F)(F)(F)(F)F.Nc1c([N+](=O)[O-])c2cccnc2c2ncccc12.[Ir+3].[c-]1ccccc1-c1ccccn1.[c-]1ccccc1-c1ccccn1 [Complex 2, [Ir(Hppy)2(NAP)]PF6]",80.6 ± 1.4 µM,35.6%,14.8%
